Test results: patent publication US20250215013A1, “SUBSTITUTED TRICYCLIC COMPOUNDS AS PARP INHIBITORS AND THE USE THEREOF” (IMPACT THERAPEUTICS (SHANGHAI), INC., priority 2022, published 2025)

Assays:
[1] = molecular target: recombinant poly(ADP-ribose) polymerase 2 (PARP2); assay: PARP2 chemiluminescent assay; assay type: biochemical; conditions: inhibition of PARP2 enzyme activity, chemiluminescence
[2] = test system: MDA-MB-436 cells; assay: Growth inhibition assay against BRCA mutant human breast cancer MDA-MB-436 cell line (CCK-8); assay type: cell-based; conditions: Homo sapiens, MDA-MB-436, […], proliferation of MDA-MB-436 cells, 7 days
[3] = molecular target: recombinant poly(ADP-ribose) polymerase 1 (PARP1) (Homo sapiens (Human), UniProt P09874)
Sequence of recombinant poly(ADP-ribose) polymerase 1 (PARP1) (P09874 whole entry): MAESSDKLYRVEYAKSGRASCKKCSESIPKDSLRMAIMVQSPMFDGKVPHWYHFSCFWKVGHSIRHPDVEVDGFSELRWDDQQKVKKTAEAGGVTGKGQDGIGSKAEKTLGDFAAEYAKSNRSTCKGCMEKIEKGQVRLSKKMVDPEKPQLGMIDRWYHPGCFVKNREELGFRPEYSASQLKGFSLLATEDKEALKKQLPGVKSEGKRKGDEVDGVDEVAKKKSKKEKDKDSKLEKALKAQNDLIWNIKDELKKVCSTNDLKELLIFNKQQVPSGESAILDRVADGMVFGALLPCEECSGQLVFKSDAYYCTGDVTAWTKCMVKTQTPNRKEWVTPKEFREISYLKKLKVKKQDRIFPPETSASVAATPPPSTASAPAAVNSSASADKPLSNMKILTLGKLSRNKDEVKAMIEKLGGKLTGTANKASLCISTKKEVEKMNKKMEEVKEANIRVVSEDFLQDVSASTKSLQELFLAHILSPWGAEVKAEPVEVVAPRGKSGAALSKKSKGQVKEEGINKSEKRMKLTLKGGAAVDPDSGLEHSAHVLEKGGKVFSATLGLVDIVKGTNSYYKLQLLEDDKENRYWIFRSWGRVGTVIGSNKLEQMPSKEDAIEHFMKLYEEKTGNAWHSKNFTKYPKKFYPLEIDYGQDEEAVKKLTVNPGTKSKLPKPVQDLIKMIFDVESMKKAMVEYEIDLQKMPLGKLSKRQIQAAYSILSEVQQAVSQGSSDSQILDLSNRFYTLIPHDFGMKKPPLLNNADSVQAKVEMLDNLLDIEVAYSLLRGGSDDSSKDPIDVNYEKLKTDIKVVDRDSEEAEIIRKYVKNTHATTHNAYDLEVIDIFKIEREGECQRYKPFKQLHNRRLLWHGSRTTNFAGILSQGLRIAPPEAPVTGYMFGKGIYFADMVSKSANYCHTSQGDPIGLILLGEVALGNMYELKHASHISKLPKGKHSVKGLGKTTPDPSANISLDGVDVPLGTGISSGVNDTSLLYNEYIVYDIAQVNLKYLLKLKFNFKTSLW

IC50 [1]	IC50 [2]	IC50 [3]	SMILES
7260 nM	17.4 nM	2.23 nM	CNC(=O)c1ccc(N2CCN(Cc3ccc4c([nH]c(=O)n5ccnc45)c3F)CC2)c(F)n1 [Example 61, 8-((4-(2-fluoro-6-(methylcarbamoyl)pyridin-3-yl)piperazin-1-yl)methyl)-7-fluoroimidazo[1,2-c]quinazolin-5(6H)-one]
> 10000 nM	46.7 nM	3.49 nM	CCNC(=O)c1ccc(N2CCN(Cc3ccc4c([nH]c(=O)n5ccnc45)c3F)CC2)c(F)n1 [Example 62, 8-((4-(2-fluoro-6-(ethylcarbamoyl)pyridin-3-yl)piperazin-1-yl)methyl)-7-fluoroimidazo[1,2-c]quinazolin-5(6H)-one]
667 nM	12.4 nM	4.26 nM	CNC(=O)c1ccc(N2CCN(Cc3ccc4c([nH]c(=O)c5occc54)c3C)CC2)c(F)n1 [Example 103, 7-((4-(2-fluoro-6-(methylcarbamoyl)pyridin-3-yl)piperazin-1-yl)methyl)-6-methylfuro[2,3-c]quinolin-4(5H)-one]
584 nM	8.24 nM	2.92 nM	CNC(=O)c1ccc(N2CCN(Cc3ccc4c(c3)[nH]c(=O)c3cn(C)cc34)CC2)c(C)n1 [Example 35, 7-((4-(2-methyl-6-(methylcarbamoyl)pyridin-3-yl)piperazin-1-yl)methyl)-2-methyl-2,5-dihydro-4H-pyrrolo[3,4-c]quinolin-4-one]
469 nM	2.01 nM	0.25 nM	CNC(=O)c1ccc(N2CCN(Cc3cc(F)c4c(c3)[nH]c(=O)c3cncn34)CC2)c(F)n1 [Example 53, 7-((4-(2-fluoro-6-(methylcarbamoyl)pyridin-3-yl)piperazin-1-yl)methyl)-9-fluoroimidazo[1,5-a]quinoxalin-4(5H)-one]
> 10000 nM	12.1 nM	0.68 nM	CNC(=O)c1ccc(N2CCN(C(C)c3ccc4c([nH]c(=O)c5c(C)cnn54)c3F)CC2)c(F)n1 (stereo not drawn) [Example 204, 6-fluoro-7-(1-(4-(2-fluoro-6-(methylcarbamoyl)pyridin-3-yl)piperazin-1-yl)ethyl)-3-methylpyrazolo[1,5-a]quinoxalin-4(5H)-one]
2980 nM	58.2 nM	3.31 nM	CNC(=O)c1ccc(N2CCN(Cc3ccc4c5c(c(=O)[nH]c4c3)CNC5)CC2)c(C)n1 [Example 74, 7-((4-(6-methylcarbamoyl-2-methylpyridin-3-yl)piperazin-1-yl)methyl)-1,2,3,5-tetrahydro-4H-pyrrolo[3,4-c]quinolin-4-one]
> 10000 nM	> 100 nM	138 nM	CNC(=O)c1ccc(N2CCN(Cc3ccc4c(c3)[nH]c(=O)c3oncc34)CC2)c(C)n1 [Example 30, 7-((4-(2-methyl-6-(methylcarbamoyl)pyridin-3-yl)piperazin-1-yl)methyl)isoxazolo[5,4-c]quinolin-4(5H)-one]
776 nM	14 nM	0.47 nM	CNC(=O)c1ccc(N2CCN(Cc3ccc4c([nH]c(=O)c5cncn54)c3F)CC2)c(F)n1 [Example 55, 7-((4-(2-fluoro-6-(methylcarbamoyl)pyridin-3-yl)piperazin-1-yl)methyl)-6-fluoroimidazo[1,5-a]quinoxalin-4(5H)-one]
2380 nM	11.1 nM	8.38 nM	CNC(=O)c1ccc(N2CCN(Cc3ccc4c5c(c(=O)[nH]c4c3)CN(C)C5)CC2)c(C)n1 [Example 75, 7-((4-(6-methylcarbamoyl-2-methylpyridin-3-yl)piperazin-1-yl)methyl)-2-methyl-1,2,3,5-tetrahydro-4H-pyrrolo[3,4-c]quinolin-4-one]
801 nM	16.2 nM	0.21 nM	CNC(=O)c1ccc(N2CCN(Cc3ccc4c([nH]c(=O)c5c(C)cnn54)c3F)C[C@H]2C)c(F)n1 [Example 166, (R)-6-fluoro-7-((4-(2-fluoro-6-(methylcarbamoyl)pyridin-3-yl)-3-methylpiperazin-1-yl)methyl)-3-methylpyrazolo[1,5-a]quinoxalin-4(5H)-one]
